We go through 18 compounds from patent US8415346B2, “Inhibitors of Janus kinases” (Merck Sharp & Dohme Corp., priority 2008, dated 2013).

pIC50: −log10 of the molar value.

In the assay the target is T1, recombinant JAK2 (JAK2 JH1 domain) (Homo sapiens, UniProt O60674).
T1 construct: 50 nM JAK2 JH1 domain (Upstate); purchased Upstate
T1 sequence (O60674 849-1124 limits assumed): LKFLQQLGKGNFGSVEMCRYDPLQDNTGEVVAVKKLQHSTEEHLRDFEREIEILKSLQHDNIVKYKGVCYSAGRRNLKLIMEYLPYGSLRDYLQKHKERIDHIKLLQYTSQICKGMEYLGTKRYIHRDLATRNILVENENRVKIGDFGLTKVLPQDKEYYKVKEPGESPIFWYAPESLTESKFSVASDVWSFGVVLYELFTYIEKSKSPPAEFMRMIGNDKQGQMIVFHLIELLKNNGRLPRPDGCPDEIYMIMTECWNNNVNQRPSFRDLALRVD
Briefly: JAK2 Kinase Activity Inhibition Assay and Determination of IC50 (HTRF). It is filed as biochemical. The following applies: HTRF kinase assay, 15 μM MgATP, 50 nM JAK2 JH1 domain. As for the experimental part: JAK2 Kinase Activity Inhibition Assay and Determination of IC50
The kinase activity was measured using a modified version of the homogeneous time-resolved tyrosine kinase assay described in Park et al. Anal. Biochem. 269, 94-104 (1999).
IC50 was obtained by fitting the observed relationship between compound/inhibitor concentration and HTRF signal with a 4-parameter logistic equation.
Compounds of the instant invention are potent inhibitors of recombinant purified JAK2 kinase activity with an IC50 of approximately 8 nM-1 μM.
Consider `CS(=O)(=O)c1ccc(Nc2nn(-c3ccccc3)cc2C(N)=O)cc1` [Example 1, 3-{[4-(methylsulfonyl)phenyl]amino}-1-phenyl-1H-pyrazole-4-carboxamide], for which the negative logarithm of the IC50 (pIC50) is 6.77.
Turning to `CNC(=O)c1ccc(Nc2nn(-c3ccccc3)cc2C(N)=O)cc1` [Example 2, 3-({4-[(methylamino)carbonyl]phenyl}amino)-1-phenyl-1H-pyrazole-4-carboxamide], the pIC50 was 6.80.
Next, `NC(=O)c1cn(-c2ccccc2)nc1Nc1ccnc(CO)c1` [Example 3, 3-{[2-(hydroxymethyl)pyridin-4-yl]amino}-1-phenyl-1H-pyrazole-4-carboxamide]: 6.07.
Next, `NC(=O)c1cn(-c2ccccc2)nc1Nc1ccc(C(=O)N2CCOCC2)cc1` [Example 4, 3-{[4-(morpholin-4-ylcarbonyl)phenyl]amino}-1-phenyl-1H-pyrazole-4-carboxamide]: 7.03.
The value for `NC(=O)c1cn(-c2ccccc2)nc1Nc1ccc(S(=O)(=O)N2CCOCC2)cc1` [Example 5, 3-{[4-(morpholin-4-ylsulfonyl)phenyl]amino}-1-phenyl-1H-pyrazole-4-carboxamide] was 7.20; that for `CN(C)S(=O)(=O)c1ccc(Nc2nn(-c3ccccc3)cc2C(N)=O)cc1` [Example 6, 3-({4-[(dimethylamino)sulfonyl]phenyl}amino)-1-phenyl-1H-pyrazole-4-carboxamide] was 7.38.
In the case of `CN(C)C(=O)c1ccc(Nc2nn(-c3ccccc3)cc2C(N)=O)cc1` [Example 7, 3-({4-[(dimethylamino)carbonyl]phenyl}amino)-1-phenyl-1H-pyrazole-4-carboxamide], the pIC50 is 7.25.
Next, `NC(=O)c1cn(-c2ccccc2)nc1Nc1ccccc1` [Example 8, 3-anilino-1-phenyl-1H-pyrazole-4-carboxamide]: 6.32.
Next, `CN1CCN(C(=O)c2ccc(Nc3nn(-c4ccccc4)cc3C(N)=O)cc2)CC1` [Example 9, 3-({4-[(4-methylpiperazin-1-yl)carbonyl]phenyl}amino)-1-phenyl-1H-pyrazole-4-carboxamide]: 7.42; `NC(=O)c1cn(-c2ccccc2)nc1Nc1ccc(C(=O)N2CCS(=O)(=O)CC2)cc1` [Example 10, 3-({4-[(1,1-dioxidothiomorpholin-4-yl)carbonyl]phenyl}amino)-1-phenyl-1H-pyrazole-4-carboxamide]: 7.89.
The value for `NC(=O)c1cn(-c2ccccc2)nc1Nc1ccc(CN2CCOCC2)cc1` [Example 11, 3-{[4-(morpholin-4-ylmethyl)phenyl]amino}-1-phenyl-1H-pyrazole-4-carboxamide] was 7.31; that for `NC(=O)c1cn(-c2ccccc2)nc1Nc1ccc(CN2CCS(=O)(=O)CC2)cc1` [Example 12, 3-({4-[(1,1-dioxidothiomorpholin-4-yl)methyl]phenyl}amino)-1-phenyl-1H-pyrazole-4-carboxamide] was 7.44; that for `CN(C)Cc1ccc(Nc2nn(-c3ccccc3)cc2C(N)=O)cc1` [Example 13, 3-({4-[(dimethylamino)methyl]phenyl}amino)-1-phenyl-1H-pyrazole-4-carboxamide] was 7.44.
On to `CC(C)(O)c1ccc(Nc2nn(-c3ccccc3)cc2C(N)=O)cc1` [Example 14, 3-{[4-(1-hydroxy-1-methylethyl)phenyl]amino}-1-phenyl-1H-pyrazole-4-carboxamide], for which the pIC50 was 7.09.
The value for `CS(=O)(=O)c1ccc(Nc2nn(-c3ccc(Cl)cc3)cc2C(N)=O)cc1` [Example 15, 1-(4-chlorophenyl)-3-{[4-(methylsulfonyl)phenyl]amino}-1H-pyrazole-4-carboxamide] was 6.54; that for `CS(=O)(=O)c1ccc(Nc2nn(-c3ccc(S(C)(=O)=O)cc3)cc2C(N)=O)cc1` [Example 16, 1-[4-(methylsulfonyl)phenyl]-3-{[4-(methylsulfonyl)phenyl]amino}-1H-pyrazole-4-carboxamide] was 7.32; that for `CC(C)(C)c1ccc(-n2cc(C(N)=O)c(Nc3ccc(S(C)(=O)=O)cc3)n2)cc1` [Example 17, 1-(4-tert-butylphenyl)-3-{[4-(methylsulfonyl)phenyl]amino}-1H-pyrazole-4-carboxamide] was 8.09.
In the case of `CC(O)c1ccc(-n2cc(C(N)=O)c(Nc3ccc(S(C)(=O)=O)cc3)n2)cc1` (stereo not drawn) [Example 18, 1-[4-(1-hydroxyethyl)phenyl]-3-{[4-(methylsulfonyl)phenyl]amino}-1H-pyrazole-4-carboxamide], the pIC50 was 7.70.

In general, pIC50 refers to −log10 of the IC50, conventionally taken in molar units.
